From patent publication US20210308077A1, “COMBINATIONS INCLUDING BETA-ADRENORECEPTOR AGONISTS FOR TREATMENT OF PARKINSON`S DISEASE AND MOVEMENT DISORDERS” (The Brigham and Women`s Hospital, Inc., priority 2017, published 2021)

Experiments:
α-synuclein protein [1] = test: α-synuclein-specific ELISA in SK-N-MC cells; format: cell-based, human
Description: Protein lysis buffer containing 320 mM sucrose, 5 mM NaF, 1 mM Na3VO4, 10 mM Tris (pH 7.4), 1 mM EGTA, and 1 mM EDTA was used for mice brain tissue lysis. 100 μL of cold extraction buffer was added to each sample and homogenized in a dounce homogenizer. After incubating on ice for 10 minutes post-homogenization, samples were centrifuged at 10,000 rpm at 4° C. for 10 minutes. Supernatant was transferred to new tubes and centrifuged again at 10,000 rpm at 4° C. for additional 10 minutes. The final supernatant was transferred to new tubes and protein estimation was performed by ELISA. Total protein from rodent primary cells, human neuroblastoma cells and iPSC-derived neuronal cells was extracted using lysis buffer containing 1×PBS and 0.5% NP-40. Cells were washed once with cold PBS and lysed by adding cold lysis buffer. The cells were collected by scraping, then incubated for 30 minutes by rotating at 4° C. The samples were centrifuged at 14,000 rpm at 4° C. for 10 minutes and supernatant was transferred to new tubes. Total protein concentrations were determined by BCA assay (Thermo Scientific) according to the manufacturer's instructions. Total α-synuclein was quantified using an α-synuclein-specific sandwich ELISA.
(§1) An α-synuclein-specific Meso Scale Discovery (MSD) ELISA assay (described in Ref. (11)) was utilized for endogenous α-synuclein protein measurement. […] After samples were emptied and plate washed 3 times with TBS-T, sulfo-tagged SOY1 mAb (detection Ab) (generated using Sulfo-Tag-NHS-Ester (MSD) diluted in blocking buffer (6.7 ng/μl), was added to the plate (30 μl volumes/well) and shaken for 1 hour at room temperature. Following 3 washes, MSD Read (2×, diluted in ultrapure water) buffer was added and the plates were immediately measured using a MSD Sector 2400 imager. For confirmatory studies, an second α-synuclein-specific ELISA implementation was used employing a different, extensively published anti-α-synuclein detection antibody (Syn-1 mAb) and a different anti-α-synuclein capture antibody (1H9, courtesy Dr. Selkoe).

α-synuclein protein [2] = test: α-synuclein protein in rat primary cortical neurons (ELISA); format: cell-based; details: metaproterenol 5 μM, clenbuterol 20 μM, salbutamol 10 μM, 72 hours
Description: Primary cortical cultures were generated from E18 Sprague-Dawley rat embryos. The cortical region was dissected out in Hank's Balanced Salt Solution buffered with Hepes and dissociated with 0.125% trypsin (Invitrogen) for 17 min at 37 ° C., followed by trituration. Dissociated cells were plated at a density of 5×10^5 cells/well or 2.5×10^5 cells/well in 12-well or 24-well plates, respectively precoated with poly-D lysine (100 μg/mL). The cells were cultured in Neurobasal medium with B-27 supplement (Invitrogen) and glutamax and gentamycin. Half of the medium was changed every 4 days. Cortical neurons were treated with β2AR agonists 10 days post plating. They were then harvested 48 hours post-treatment for mRNA extraction and 72 hours post-treatment for protein extraction.
Protein lysis buffer containing 320 mM sucrose, 5 mM NaF, 1 mM Na3VO4, 10 mM Tris (pH 7.4), 1 mM EGTA, and 1 mM EDTA was used for mice brain tissue lysis. 100 μL of cold extraction buffer was added to each sample and homogenized in a dounce homogenizer. […] Total protein concentrations were determined by BCA assay (Thermo Scientific) according to the manufacturer's instructions. Total α-synuclein was quantified using an α-synuclein-specific sandwich ELISA.
as §1

Compound | endogenous α-synuclein protein under β2AR antagonism (α-synuclein protein [1]; SK-N-MC cells) | α-synuclein protein levels (α-synuclein protein [2]) | α-synuclein protein after 14 days (α-synuclein protein [1]; SK-N-MC cells, 10 μM, 14 days) | α-synuclein protein levels with increasing concentrations (α-synuclein protein [1]; SK-N-MC cells, 5, 10, 20 μM, four days)
CC(C)NCC(O)COc1cccc2ccccc12 (centres unmarked) [Propranolol, propranolol] | increased |  |  | 
CC(C)(C)NCC(O)c1ccc(O)c(CO)c1 (centres unmarked) [Salbutamol, salbutamol] |  | significantly, but modestly, reduced |  | 
CC(C)(C)NCC(O)c1cc(Cl)c(N)c(Cl)c1 (centres unmarked) [clenbuterol] |  | significantly, but modestly, reduced | lowered | decrease
